Assay: mn = molality of the nth substance listed, in mol/kg
Conditions: 101 kPa, Liquid, Vibrating tube method

CC[C@H](C)[C@H](NC(=O)CN)C(=O)NCC(=O)O [glycyl-L-isoleucylglycine] + O
Conditions | mass density [kg/m3]
288.15 K, m1 = 0.0284 | 1001.07
288.15 K, m1 = 0.03948 | 1001.83
288.15 K, m1 = 0.04918 | 1002.5
288.15 K, m1 = 0.05715 | 1003.04
288.15 K, m1 = 0.06935 | 1003.87
288.15 K, m1 = 0.07955 | 1004.56
288.15 K, m1 = 0.08916 | 1005.21
288.15 K, m1 = 0.1012 | 1006.02
303.15 K, m1 = 0.01893 | 996.925
303.15 K, m1 = 0.0328 | 997.846
303.15 K, m1 = 0.04344 | 998.561
303.15 K, m1 = 0.04827 | 998.872
303.15 K, m1 = 0.05907 | 999.58
303.15 K, m1 = 0.06849 | 1000.21
303.15 K, m1 = 0.07945 | 1000.91
303.15 K, m1 = 0.09989 | 1002.23
313.15 K, m1 = 0.02969 | 994.182
313.15 K, m1 = 0.04028 | 994.873
313.15 K, m1 = 0.05061 | 995.543
313.15 K, m1 = 0.05971 | 996.132
313.15 K, m1 = 0.07966 | 997.418

CC(C)C[C@H](NC(=O)CN)C(=O)NCC(=O)O [glycyl-L-leucylglycine] + O
Conditions | mass density [kg/m3]
288.15 K, m1 = 0.03052 | 1001.2
288.15 K, m1 = 0.04107 | 1001.91
288.15 K, m1 = 0.05063 | 1002.57
288.15 K, m1 = 0.06015 | 1003.2
288.15 K, m1 = 0.07034 | 1003.9
288.15 K, m1 = 0.08092 | 1004.6
288.15 K, m1 = 0.09106 | 1005.27
288.15 K, m1 = 0.1008 | 1005.92
298.15 K, m1 = 0.01963 | 998.372
298.15 K, m1 = 0.03198 | 999.201
298.15 K, m1 = 0.04637 | 1000.16
298.15 K, m1 = 0.0606 | 1001.11
298.15 K, m1 = 0.07265 | 1001.9
298.15 K, m1 = 0.08576 | 1002.77
298.15 K, m1 = 0.09698 | 1003.5
303.15 K, m1 = 0.01876 | 996.907
303.15 K, m1 = 0.03847 | 998.204
303.15 K, m1 = 0.04881 | 998.896
303.15 K, m1 = 0.05715 | 999.436
303.15 K, m1 = 0.06905 | 1000.22
303.15 K, m1 = 0.07699 | 1000.73
303.15 K, m1 = 0.08729 | 1001.4
303.15 K, m1 = 0.09709 | 1002.03
313.15 K, m1 = 0.01926 | 993.479
313.15 K, m1 = 0.02873 | 994.105
313.15 K, m1 = 0.04912 | 995.406
313.15 K, m1 = 0.06755 | 996.608
313.15 K, m1 = 0.07763 | 997.232
313.15 K, m1 = 0.0869 | 997.826
313.15 K, m1 = 0.1005 | 998.668

CSCC[C@H](NC(=O)CN)C(=O)NCC(=O)O [glycyl-L-methionylglycine] + O
Conditions | mass density [kg/m3]
288.15 K, m1 = 0.02065 | 1000.96
288.15 K, m1 = 0.02481 | 1001.33
288.15 K, m1 = 0.03005 | 1001.79
288.15 K, m1 = 0.04038 | 1002.71
288.15 K, m1 = 0.05024 | 1003.58
288.15 K, m1 = 0.06017 | 1004.46
288.15 K, m1 = 0.07183 | 1005.48
288.15 K, m1 = 0.07978 | 1006.18
288.15 K, m1 = 0.0913 | 1007.18
303.15 K, m1 = 0.03024 | 998.275
303.15 K, m1 = 0.03988 | 999.096
303.15 K, m1 = 0.05998 | 1000.82
303.15 K, m1 = 0.06988 | 1001.65
303.15 K, m1 = 0.07911 | 1002.43
303.15 K, m1 = 0.08988 | 1003.32
303.15 K, m1 = 0.1012 | 1004.27
313.15 K, m1 = 0.0199 | 993.923
313.15 K, m1 = 0.03002 | 994.787
313.15 K, m1 = 0.04003 | 995.629
313.15 K, m1 = 0.05041 | 996.504
313.15 K, m1 = 0.061 | 997.393
313.15 K, m1 = 0.07039 | 998.173
313.15 K, m1 = 0.08051 | 999.015

NCC(=O)N[C@@H](Cc1ccccc1)C(=O)NCC(=O)O [glycyl-L-phenylalanylglycine] + O
Conditions | mass density [kg/m3]
288.15 K, m1 = 0.005986 | 999.628
288.15 K, m1 = 0.008946 | 999.888
288.15 K, m1 = 0.01159 | 1000.12
288.15 K, m1 = 0.01398 | 1000.33
288.15 K, m1 = 0.01783 | 1000.66
288.15 K, m1 = 0.02035 | 1000.89
288.15 K, m1 = 0.02318 | 1001.13
288.15 K, m1 = 0.0251 | 1001.3
303.15 K, m1 = 0.00896 | 996.415
303.15 K, m1 = 0.01148 | 996.632
303.15 K, m1 = 0.01353 | 996.804
303.15 K, m1 = 0.01556 | 996.971
303.15 K, m1 = 0.01814 | 997.19
303.15 K, m1 = 0.01958 | 997.317
303.15 K, m1 = 0.02246 | 997.559
303.15 K, m1 = 0.02447 | 997.735
313.15 K, m1 = 0.004093 | 992.563
313.15 K, m1 = 0.00896 | 992.969
313.15 K, m1 = 0.01149 | 993.182
313.15 K, m1 = 0.01353 | 993.351
313.15 K, m1 = 0.01556 | 993.516
313.15 K, m1 = 0.01761 | 993.683
313.15 K, m1 = 0.02033 | 993.916
313.15 K, m1 = 0.02333 | 994.159
313.15 K, m1 = 0.02522 | 994.324

NCC(=O)N1CCC[C@H]1C(=O)NCC(=O)O [glycyl-L-prolylglycine] + O
Conditions | mass density [kg/m3]
288.15 K, m1 = 0.02017 | 1000.83
288.15 K, m1 = 0.0252 | 1001.26
288.15 K, m1 = 0.02989 | 1001.66
288.15 K, m1 = 0.0347 | 1002.07
288.15 K, m1 = 0.04017 | 1002.54
288.15 K, m1 = 0.04486 | 1002.93
288.15 K, m1 = 0.04775 | 1003.19
288.15 K, m1 = 0.05375 | 1003.69
303.15 K, m1 = 0.02292 | 997.573
303.15 K, m1 = 0.02697 | 997.912
303.15 K, m1 = 0.03212 | 998.333
303.15 K, m1 = 0.03677 | 998.728
303.15 K, m1 = 0.04242 | 999.195
303.15 K, m1 = 0.04731 | 999.598
303.15 K, m1 = 0.05219 | 1000.01
313.15 K, m1 = 0.02757 | 994.502
313.15 K, m1 = 0.03212 | 994.873
313.15 K, m1 = 0.03715 | 995.286
313.15 K, m1 = 0.04242 | 995.724
313.15 K, m1 = 0.04731 | 996.116
313.15 K, m1 = 0.05169 | 996.482

CC(C)[C@H](NC(=O)CN)C(=O)NCC(=O)O [glycyl-L-valylglycine] + O
Conditions | mass density [kg/m3]
288.15 K, m1 = 0.01862 | 1000.45
288.15 K, m1 = 0.02808 | 1001.13
288.15 K, m1 = 0.03769 | 1001.83
288.15 K, m1 = 0.04662 | 1002.47
288.15 K, m1 = 0.05168 | 1002.82
288.15 K, m1 = 0.05581 | 1003.11
288.15 K, m1 = 0.06152 | 1003.53
288.15 K, m1 = 0.07369 | 1004.39
288.15 K, m1 = 0.08031 | 1004.86
303.15 K, m1 = 0.02786 | 997.6
303.15 K, m1 = 0.0373 | 998.253
303.15 K, m1 = 0.04619 | 998.869
303.15 K, m1 = 0.05567 | 999.521
303.15 K, m1 = 0.06481 | 1000.14
303.15 K, m1 = 0.07464 | 1000.82
303.15 K, m1 = 0.08365 | 1001.43
303.15 K, m1 = 0.09397 | 1002.14
313.15 K, m1 = 0.02103 | 993.668
313.15 K, m1 = 0.02584 | 993.998
313.15 K, m1 = 0.03709 | 994.764
313.15 K, m1 = 0.05558 | 996.017
313.15 K, m1 = 0.06483 | 996.652
313.15 K, m1 = 0.0741 | 997.273
313.15 K, m1 = 0.08323 | 997.9
313.15 K, m1 = 0.09182 | 998.467
